Source: ChEMBL document CHEMBL1201862, “PubChem BioAssay data set” (2004)
“And” between values parts separate entries of the source, which are not always exact repeats. Equal entries are not always repeated.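 The compound was tested at five concentrations on cells cultured in 96-well plates, with a 48-hour exposure period. Abbreviation: GI50, concentration required for 50% inhibition of growth.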 The source made the active and inactive calls. Cut-off read from the data, not from the text of the source: active = GI50 up to about 1.1 µM and inactive = higher.

How the values were obtained:
Assay in all cases: growth of human tumour cells (NCI), 48 h
[1] = tested on: 786-0
[2] = tested on: A498
[3] = tested on: ACHN
[4] = tested on: DU-145
[5] = tested on: K562
[6] = tested on: LOX IMVI
[7] = tested on: M14
[8] = tested on: MDA-MB-231
[9] = tested on: MDA-N
[10] = tested on: NCI-H226
[11] = tested on: NCI-H23
[12] = tested on: NCI-H460
[13] = tested on: OVCAR-5
[14] = tested on: PC-3
[15] = tested on: SF-295
[16] = tested on: SN12C
[17] = tested on: SNB-75
[18] = tested on: TK-10
[19] = tested on: UO-31

Measured: GI50

COc1cc(OC)cc(-c2nc(O)c3ccccc3n2)c1
inactive: [1] 25.4 µM | [2] 31.1 µM | [3] > 100 µM | [4] > 100 µM | [5] > 100 µM | [6] > 100 µM | [7] > 100 µM | [8] 86.1 µM | [9] > 100 µM | [10] > 100 µM | [11] > 100 µM | [12] 28.3 µM | [13] > 100 µM | [14] > 100 µM | [15] 29 µM | [16] > 100 µM | [17] 29.6 µM | [18] 43.5 µM | [19] 71.9 µM

CCN(CC)CCOC(c1cc(OC)ccc1OC)c1ccc2n1-c1ccccc1OC2 (stereo not drawn)
inactive: [1] 15.6 µM | [2] 11.8 µM | [3] 13.8 µM | [4] 22.9 µM | [5] 7.23 µM | [6] 11.5 µM | [7] 15.7 µM | [8] 2.09 µM | [9] 13.6 µM | [10] 3.98 µM | [11] 12.9 µM | [12] 12.4 µM | [13] 15.8 µM | [14] 12.8 µM | [15] 10.4 µM | [16] 2.48 µM | [17] 2.31 µM | [18] 12.1 µM | [19] 11 µM

COc1ccccc1/C(=N\OCCC(=O)O)c1cccs1
inactive: [1] > 100 µM | [2] > 100 µM | [3] > 100 µM | [4] > 100 µM | [5] > 100 µM | [6] > 100 µM | [8] > 100 µM | [9] > 100 µM | [10] > 100 µM | [11] > 100 µM | [12] > 100 µM | [13] > 100 µM | [14] > 100 µM | [15] > 100 µM | [16] > 100 µM | [17] > 100 µM | [18] > 100 µM | [19] > 100 µM

O=C(c1ccc(O)c([N+](=O)[O-])c1)c1ccc(O)c([N+](=O)[O-])c1
inactive: [1] > 100 µM | [2] > 100 µM | [3] > 100 µM | [4] > 100 µM | [5] 50.1 µM | [6] > 100 µM | [7] > 100 µM | [8] > 100 µM | [9] 53.7 µM | [10] > 100 µM | [11] > 100 µM | [12] > 100 µM | [13] > 100 µM | [14] 66.5 µM | [15] 46.3 µM | [16] > 100 µM | [17] 28.7 µM | [18] > 100 µM | [19] 66.2 µM

CCn1cc(C(=O)O)c(=O)c2cc3c(cc21)S(=O)(=O)CC3
inactive: [1] > 100 µM | [2] > 100 µM | [3] > 100 µM | [4] > 100 µM | [5] > 100 µM | [6] > 100 µM | [7] > 100 µM | [8] > 100 µM | [9] > 100 µM | [10] > 100 µM | [11] > 100 µM | [12] > 100 µM | [13] > 100 µM | [14] > 100 µM | [15] > 100 µM | [16] > 100 µM | [17] > 100 µM | [18] > 100 µM | [19] > 100 µM

CC1CNC(c2ccc(COc3ccc(C4=NC(C)CN4)cc3)cc2)=N1 (stereo not drawn)
inactive: [1] > 100 µM | [2] > 100 µM | [3] > 100 µM | [4] > 100 µM | [5] 15.5 µM | [6] > 100 µM | [7] 60.1 µM | [8] 45.9 µM | [9] 82.2 µM | [11] 53.3 µM | [12] 23.4 µM | [13] > 100 µM | [14] 32.1 µM | [15] 43.4 µM | [16] 17.6 µM | [17] 13.2 µM | [18] 65.9 µM | [19] > 100 µM

CC(C)(C)OC/C=C(\Br)CO
inactive: [1] > 100 µM | [2] > 100 µM | [3] > 100 µM | [4] > 100 µM | [5] > 100 µM | [7] > 100 µM | [8] > 100 µM | [9] > 100 µM | [10] > 100 µM | [11] > 100 µM | [12] > 100 µM | [13] > 100 µM | [14] > 100 µM | [15] > 100 µM | [16] > 100 µM | [17] > 100 µM | [19] > 100 µM

CCOC(=O)c1cc(NC(=O)N(CCC#N)CCN(C(=O)N[C@@H](Cc2ccccc2)C(=O)N[C@@H](CC(C)C)C(=O)NC)c2ccccc2)ccc1OC
inactive: [1] 45.3 µM | [2] 63.7 µM | [3] 25.3 µM | [4] 44.6 µM | [6] 18.2 µM | [7] 99.5 µM | [8] 74.5 µM | [9] 57.1 µM | [10] 35.5 µM | [11] 37.3 µM | [13] > 100 µM | [14] 49.4 µM | [15] 34.6 µM | [16] 33.7 µM | [17] 45 µM | [18] 46.5 µM | [19] 34.4 µM

COC(=O)[C@H](Cc1ccccc1)NC(=O)[C@H](Cc1ccccc1)NC(=O)CN1C(=O)[C@@H]2C3C=CC(C3)[C@@H]2C1=O
inactive: [1] 15.5 µM and 14.2 µM | [2] 22.9 µM and 16.8 µM | [3] 16.7 µM and 16.2 µM | [4] 20.1 µM and 17.9 µM | [6] 18.3 µM and 17.9 µM | [7] 19.9 µM and 18.6 µM | [8] 17.3 µM and 17 µM | [9] 16.5 µM and 17.2 µM | [10] 20.1 µM and 19.1 µM | [11] 17.6 µM and 17.2 µM | [12] 21.2 µM and 20.6 µM | [13] 22 µM and 19.8 µM | [14] 15.6 µM and 16.4 µM | [15] 18.5 µM and 19.2 µM | [16] 18.2 µM and 16.7 µM | [17] 18.7 µM and 18 µM | [18] 18.9 µM and 17.5 µM | [19] 23.3 µM and 15.7 µM

COc1ccc(-c2oc3cc(OC)c(OC)c(OC)c3c(=O)c2OC)cc1OC [HEXAMETHOXYFLAVONE]
inactive: [1] > 100 µM | [2] > 100 µM | [3] > 100 µM | [4] > 100 µM | [5] > 100 µM | [6] > 100 µM | [7] > 100 µM | [8] > 100 µM | [9] > 100 µM | [10] > 100 µM | [11] > 100 µM | [12] > 100 µM | [13] > 100 µM | [14] > 100 µM | [15] > 100 µM | [16] > 100 µM | [17] > 100 µM | [18] > 100 µM | [19] 79.1 µM
